Results as given in ChEMBL document CHEMBL1136520, “Advances toward new antidepressants beyond SSRIs: 1-aryloxy-3-piperidinylpropan-2-ols with dual 5-HT1A receptor antagonism/SSRI activities. Part 1” (Bioorg Med Chem Lett, 2003).

Columns and labels:
[1] = target: T1, 5-hydroxytryptamine receptor 1A (Homo sapiens, UniProt P08908); experiment: Binding affinity towards 5-hydroxytryptamine 1A receptor using [3H]8-OH-DPAT as radioligand
T1 sequence (P08908 whole entry): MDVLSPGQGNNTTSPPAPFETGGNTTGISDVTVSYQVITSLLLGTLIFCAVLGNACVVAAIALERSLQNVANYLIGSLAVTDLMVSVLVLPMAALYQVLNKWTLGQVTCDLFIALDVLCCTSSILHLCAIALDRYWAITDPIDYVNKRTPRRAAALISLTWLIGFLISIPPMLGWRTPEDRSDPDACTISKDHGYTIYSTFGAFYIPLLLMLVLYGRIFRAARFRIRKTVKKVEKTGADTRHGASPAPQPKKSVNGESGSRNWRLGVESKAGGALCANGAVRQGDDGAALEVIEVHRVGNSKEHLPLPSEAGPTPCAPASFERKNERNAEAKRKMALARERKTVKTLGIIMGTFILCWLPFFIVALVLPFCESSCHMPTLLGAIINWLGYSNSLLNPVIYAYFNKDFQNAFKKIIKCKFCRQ

[2] = target: T2, Sodium-dependent serotonin transporter (Rattus norvegicus, UniProt P31652); experiment: Binding affinity towards Serotonin transporter labeled with [3H]paroxetine as radioligand
[3] = target: T3, 5-hydroxytryptamine receptor 1A (Homo sapiens) (UniProt P08908); experiment: Maximal response as a result of 5-HT1A receptor-mediated stimulation of [35S]GTP-gamma-S, binding; format: functional
T3 sequence (whole entry): T1 sequence (P08908 whole entry)

[4] = target: Sodium-dependent serotonin transporter (Rattus norvegicus) (UniProt P31652); experiment: Inhibitory activity against serotonin [5-HT] reuptake site labeled with [3H]paroxetine as radioligand at 100 nM concentration
[5] = target: T1, 5-hydroxytryptamine receptor 1A; experiment: Binding affinity was determined towards 5-hydroxytryptamine 1A receptor using [3H]8-OH-DPAT as radioligand
[6] = target: T3, 5-hydroxytryptamine receptor 1A (Homo sapiens); experiment: Maximal response as a result of 5-hydroxytryptamine 1A receptor-mediated stimulation of [35S]GTP-gamma-S, binding; format: functional
[7] = target: T2, Sodium-dependent serotonin transporter; experiment: Binding affinity towards serotonin [5-HT] reuptake site labeled with [3H]paroxetine as radioligand
[8] = target: Sodium-dependent serotonin transporter (Rattus norvegicus) (UniProt P31652); experiment: Inhibitory activity against Serotonin transporter labeled with [3H]-paroxetine as radioligand at 100 nM concentration
[9] = target: T1, 5-hydroxytryptamine receptor 1A; experiment: Binding affinity towards 5-HT1A receptor using [3H]8-OH-DPAT as radioligand
[10] = target: Sodium-dependent serotonin transporter (Rattus norvegicus) (UniProt P31652); experiment: Inhibitory activity against serotonin [5-HT] reuptake site labeled with [3H]-paroxetine as radioligand at 100 nM concentration
[11] = target: T3, 5-hydroxytryptamine receptor 1A (Homo sapiens); experiment: Inhibitory activity against 5-hydroxytryptamine 1A receptor using [3H]-8-OH-DPAT as radioligand at 100 nM concentration

Chain of Sodium-dependent serotonin transporter (Rattus norvegicus) (P31652 whole entry): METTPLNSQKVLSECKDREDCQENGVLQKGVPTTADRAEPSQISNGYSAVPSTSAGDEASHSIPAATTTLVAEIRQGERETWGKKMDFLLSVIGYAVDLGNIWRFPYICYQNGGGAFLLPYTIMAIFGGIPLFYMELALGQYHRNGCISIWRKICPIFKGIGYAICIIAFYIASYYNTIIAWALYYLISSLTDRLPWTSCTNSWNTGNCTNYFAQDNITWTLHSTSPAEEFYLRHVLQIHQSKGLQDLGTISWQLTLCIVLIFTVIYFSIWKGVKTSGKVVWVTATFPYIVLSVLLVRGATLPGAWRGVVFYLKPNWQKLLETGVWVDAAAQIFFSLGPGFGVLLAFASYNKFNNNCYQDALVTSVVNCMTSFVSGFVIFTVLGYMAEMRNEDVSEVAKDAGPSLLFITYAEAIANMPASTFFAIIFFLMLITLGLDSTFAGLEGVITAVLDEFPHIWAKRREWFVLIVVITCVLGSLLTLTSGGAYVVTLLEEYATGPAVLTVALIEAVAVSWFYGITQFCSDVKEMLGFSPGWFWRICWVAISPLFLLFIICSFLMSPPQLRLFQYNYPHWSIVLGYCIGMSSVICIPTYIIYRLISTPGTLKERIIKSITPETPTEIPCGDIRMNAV
T2 sequence (P31652 whole entry): as above

| SMILES | Ki [5] [nM] | Emax [6] [%] | Ki [7] [nM] | further results |
| --- | --- | --- | --- | --- |
| COc1ccc2cc(C3CCN(C[C@H](O)COc4cccc5[nH]ccc45)CC3)sc2c1 |  |  |  | Ki [1]: 3.13 nM; Ki [2]: 68.7 nM; Emax [3]: 4.92% |
| Cc1cc(C)c2cc(C3CCN(C[C@H](O)COc4cccc5[nH]c(C)cc45)CC3)sc2c1 | 27.8 | 13.4 | 52.1 |  |
| CC(C)Oc1ccc2cc(C3CCN(C[C@H](O)COc4cccc5[nH]ccc45)CC3)sc2c1 |  |  |  | Ki [1]: 19.9 nM; inhibition [8]: < 50% |
| COc1cccc2cc(C3CCN(C[C@H](O)COc4cccc5[nH]ccc45)CC3)sc12 |  |  |  | Ki [1]: 6.13 nM; Ki [2]: 94.3 nM; Emax [3]: 9.32% |
| O[C@H](COc1cccc2[nH]ccc12)CN1CCC(c2cc3ccc(Cl)cc3s2)CC1 | 7.64 |  | 14 |  |
| COc1cccc2sc(C3CCN(C[C@H](O)COc4cccc5[nH]c(C)cc45)CC3)cc12 | 4.83 | 9.05 | 51.2 |  |
| COc1ccc2sc(C3CCN(C[C@H](O)COc4cccc5[nH]ccc45)CC3)cc2c1 |  |  |  | Ki [9]: 1.44 nM; inhibition [8]: < 50% |
| CC(C)Oc1cccc2sc(C3CCN(C[C@H](O)COc4cccc5[nH]ccc45)CC3)cc12 |  |  |  | Ki [9]: 7.45 nM; inhibition [8]: < 50% |
| COc1ccc2c(C)c(C3CCN(C[C@H](O)COc4cccc5[nH]ccc45)CC3)sc2c1 | 6.07 |  |  | inhibition [10]: < 50% |
| Cc1cc(C)c2cc(C3CCN(C[C@H](O)COc4cccc5[nH]ccc45)CC3)sc2c1 |  |  |  | inhibition [11]: < 50%; inhibition [10]: < 50% |
| O[C@H](COc1cccc2[nH]ccc12)CN1CCC(c2cc3ccc(F)cc3s2)CC1 | 9.31 | 11.7 | 1.99 |  |
| Cc1c(C2CCN(C[C@H](O)COc3cccc4[nH]ccc34)CC2)sc2ccc(F)cc12 | 5.17 |  |  | inhibition [4]: < 50% |
| Cc1cccc2sc(C3CCN(C[C@H](O)COc4cccc5[nH]ccc45)CC3)cc12 | 4.7 | 17 | 3.69 |  |
| O[C@H](COc1cccc2[nH]ccc12)CN1CCC(c2cc3cc(F)ccc3s2)CC1 | 29.4 | 13.2 | 11.8 |  |
| O[C@H](COc1cccc2[nH]ccc12)CN1CCC(c2cc3ccccc3s2)CC1 | 3.7 | 12.3 | 16.7 |  |
| Oc1ccc2cc(C3CCN(C[C@H](O)COc4cccc5[nH]ccc45)CC3)sc2c1 | 3.09 |  |  | inhibition [4]: < 50% |

Further lines, with some results ahead:

| Ki [5] [nM] | Emax [6] [%] | Ki [7] [nM] | SMILES | further results |
| --- | --- | --- | --- | --- |
| 22.6 |  |  | Cc1ccc2cc(C3CCN(C[C@H](O)COc4cccc5[nH]c(C)cc45)CC3)sc2c1 | inhibition [4]: < 50% |
| 7.12 | 12.5 | 37.2 | Oc1cccc2cc(C3CCN(C[C@H](O)COc4cccc5[nH]ccc45)CC3)sc12 |  |
|  | 7.47 | 12.6 | COc1cccc2sc(C3CCN(C[C@H](O)COc4cccc5[nH]ccc45)CC3)cc12 |  |
| 7.21 | 11 | 105 | O[C@H](COc1cccc2[nH]ccc12)CN1CCC(c2cc3cc(Cl)ccc3s2)CC1 |  |
| 6.79 | 11.2 | 15.9 | O[C@H](COc1cccc2[nH]ccc12)CN1CCC(c2cc3c(F)cccc3s2)CC1 |  |
| 15.3 | 12.6 | 11.3 | Cc1cc2c(OC[C@@H](O)CN3CCC(c4cc5ccc(F)cc5s4)CC3)cccc2[nH]1 |  |
| 12.7 | 13.8 | 50.5 | Cc1ccc2cc(C3CCN(C[C@H](O)COc4cccc5[nH]ccc45)CC3)sc2c1 |  |
| 7.5 | 12.1 | 5.27 | Cc1cc2c(OC[C@@H](O)CN3CCC(c4cc5cc(F)ccc5s4)CC3)cccc2[nH]1 |  |
| 6.28 |  | 24.1 | Cc1c(C2CCN(C[C@H](O)COc3cccc4[nH]ccc34)CC2)sc2ccccc12 |  |
| 10.4 | 12.1 | 17.4 | Cc1cc2c(OC[C@@H](O)CN3CCC(c4cc5c(C)cccc5s4)CC3)cccc2[nH]1 |  |
| 9.12 |  | 15.6 | O[C@H](COc1cccc2[nH]ccc12)CN1CCC(c2cc3c(Cl)cccc3s2)CC1 |  |
| 14.1 | 11.6 | 34.2 | Cc1cc2c(OC[C@@H](O)CN3CCC(c4cc5c(F)cccc5s4)CC3)cccc2[nH]1 |  |
